Test results reported in PubChem BioAssay AID588394 (NMMLSC, 2011).
Active and inactive are the calls of the source.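 The calls were made as follows: active = half-maximal effective concentration at most 10 microM and response span at least 30% from a well-fitted curve; inactive = the rest.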

Target: Rab7 GTPase wild-type (Canis lupus familiaris), GST fusion
Test: blockers of fluorescent GTP uptake by Rab7 – biochemical, dog Rab7, bead multiplex flow cytometry, round 1, SAR follow-up (AID 588394)
Conditions: Bead-based flow cytometry, Bodipy-FL-GTP binding, EDTA

Row | SMILES | EC50
1 | CC1(C)Cc2c(sc(NC(=S)NC(=O)c3cccc(Br)c3)c2C(=O)O)CO1 | 2280 nM
2 | COc1ccc(C(=O)NC(=S)Nc2sc3c(c2C(=O)O)CC(C)(C)OC3)cc1 | 126 nM
3 | CC1(C)Cc2c(sc(NC(=S)NC(=O)c3cccc(F)c3)c2C(=O)O)CO1 | 308 nM
4 | CC1(C)Cc2c(sc(NC(=S)NC(=O)c3ccc(Br)cc3)c2C(=O)O)CO1 | 269 nM
5 | CC1(C)Cc2c(sc(NC(=S)NC(=O)c3ccccc3F)c2C(=O)O)CO1 | 56 nM
6 | CC1(C)CCc2sc(NC(=S)NC(=O)c3ccccc3)c(C(=O)O)c2C1 | 72 nM
7 | CC1(C)Cc2c(sc(NC(=S)NC(=O)c3ccccc3Br)c2C(=O)O)CO1 | 46 nM
8 | COc1cccc(C(=O)NC(=S)Nc2sc3c(c2C(=O)O)CC(C)(C)OC3)c1 | 55 nM

Same assay, conditions: Bead-based flow cytometry, Bodipy-FL-GTP binding, EDTA; at 100 µM (top of the series)

Row | percent response, lower = inhibition | SMILES
9 | inactive | CC1(C)Cc2c(sc(NC(=S)Nc3ccccc3)c2C(=O)O)CO1
10 | inactive | CC1(C)Cc2c(sc(NC(=O)Cc3ccccc3)c2C(=O)O)CO1

Continued, compound first:

Row | SMILES | percent response, lower = inhibition
11 | COC(=O)c1c(N)sc2c1CC(C)(C)OC2 | inactive
12 | CN1CCc2c(sc(NC(=O)Nc3ccc(F)cc3)c2C(=O)O)C1 | inactive
13 | CCOC(=O)c1c(NC(=O)NC(C)(C)C)sc2c1CCN(C)C2 | inactive
14 | Cc1ccc(NC(=O)Nc2sc3c(c2C(=O)O)CCN(C)C3)cc1 | inactive
15 | CN1CCc2c(sc3nc(Nc4ccc(F)cc4)oc(=O)c23)C1 | inactive
16 | Cc1ccc(Nc2nc3sc4c(c3c(=O)o2)CCN(C)C4)cc1 | inactive
17 | CCOC(=O)c1c(NC(=O)Nc2ccc(C)cc2)sc2c1CCN(C)C2 | inactive
18 | CCOC(=O)c1c(NC(=S)Nc2ccccc2)sc2c1CC(C)(C)OC2 | inactive
19 | CCOC(=O)c1c(NC(=S)NC(=O)c2ccccc2)sc2ccccc12 | inactive
20 | CCOC(=O)c1c(NC(=O)Nc2ccc(F)cc2)sc2c1CCN(C)C2 | inactive
21 | CC(C)(C)OC(=O)c1c(NC(=S)NC(=O)c2ccccc2)sc2c1CCOC2 | inactive
22 | CCOC(=O)c1c(N)sc2ccccc12 | inactive
